In paper PMC11809180, “RA-PR058, a novel ramalin derivative, reduces BACE1 expression and phosphorylation of tau in Alzheimer’s disease mouse models” (Animal Cells and Systems, 2025):

What was measured:
tau = test: Tau phosphorylation in brain of 3xTg-AD mice (western blot, DAB staining); assay type: in vivo, mouse; settings: 20 mg/kg oral daily 4 weeks
Method: (§1) 3xTg-AD (B6;129-Tg(APPSwe,tauP301L)1Lfa Psen1^tm1Mpm/Mmjax) mice and their littermate wild-type (WT) mice were used in this study. Each experimental group consisted of 4–8 mice, with groups designated as WT, 3xTg-AD Vehicle, and 3xTg-AD RA-PR058. All mice were maintained in a 12-hour light/dark cycle with free access to food and water. 7-month-old age of mice were administered with 20 mg/kg of RA-PR058 orally once a day for 1 month followed by the elevated plus maze test. All animal experimental procedures were approved by the Institutional Animal Care and Use Committee of Sungkyunkwan University (SKKUIACUC2022-10-41-1).
After EPM was conducted, mice were sacrificed, and brain tissues were collected as previously described (Park et al. [2021]). Mice were anesthetized by injecting Zoletil (Virbac) and Rompun (Bayer) intraperitoneally. After mice were anesthetized, they were perfused with phosphate-buffered saline (PBS). Then, brains were extracted and cut into two hemispheres; one hemisphere was preserved in 4% paraformaldehyde and the other was dissected into the cortex and hippocampus. Dissected tissues were then snap-frozen in liquid nitrogen and stored at −80 ℃ until further biochemical analysis.
Samples for western blot analysis were prepared as previously described (Gwon et al. [2012]). Cells were lysed with T-PER™ Tissue Protein Extraction Reagent (Thermo Fisher Scientific) supplemented with protease/phosphatase inhibitor cocktail (Thermo Fisher Scientific) and incubated at 4 ℃ for 10 minutes. After incubation, lysed samples were centrifuged at 13,000 x rpm for 10 minutes at 4 ℃ and the supernatant were used for western blot analysis. The cortices and hippocampi tissues were homogenized using RIPA lysis buffer (Millipore) supplemented with protease/phosphatase inhibitor cocktail and incubated at 4 ℃ for 30 minutes. Following incubation, lysed tissues were centrifuged at 13,000 x rpm for 30 minutes at 4 ℃ and the supernatant were used for western blot analysis. Protein concentrations were measured using Pierce™ BCA Protein Assay Kits (Thermo Fisher Scientific). Equal amounts of proteins were mixed with NuPAGE™ LDS Sample Buffer (Invitrogen) and 5% 2-mercaptoethanol (Sigma) and then boiled at 95 ℃ for 5 minutes. 4–12 μg of proteins were loaded onto SDS-polyacrylamide gels and electrophoresed (SDS-PAGE) until the protein bands were fully separated. After SDS-PAGE, the protein bands were transferred onto polyvinylidene fluoride (PVDF) membranes (Millipore). Following transfer, PVDF membranes were blocked with 5% non-fat skim milk in tris-buffered saline with Tween20 (Junsei) (TBS-T) for 1 hour at room temperature. Then, PVDF membranes were incubated overnight at 4 ℃ with primary antibodies against APP (6E10, BioLegend, 803001, 1:1,000), AT8 (Invitrogen, MN1020, 1:1,000), AT180 (Invitrogen, MN1040, 1:1,000), BACE1 (Cell Signaling Technology, 5606, 1:1,000), β-Actin (Sigma, A5441, 1:10,000), p-JNK (Cell Signaling Technology, 4671, 1:1,000), JNK (Cell Signaling Technology, 9252, 1:1,000), p-Tau^S396 (Invitrogen, 44-752G, 1:1,000), Tau13 (BioLegend, 835201, 1:1,000). Following incubation, membranes were washed with TBS-T and incubated with horseradish peroxidase-conjugated anti-mouse secondary antibody (Sigma, AP124P, 1:5,000) or anti-rabbit secondary antibody (Invitrogen, 31460, 1:5,000) for 1 hour at room temperature. […] Protein bands were quantified using ImageJ (NIH). […]

3xTg-AD mice = test: Elevated plus maze test in 3xTg-AD mice; assay type: in vivo, mouse; settings: 20 mg/kg oral daily for 1 month, vs vehicle-treated 3xTg-AD
Method: as §1
The elevated plus maze (EPM) test is a widely used behavioral assay to assess anxiety-like behavior in mice (Walf and Frye [2007]). After administering RA-PR058 for 1 month, EPM was performed to evaluate its effects. Briefly, the mouse was placed in the center of the maze, facing an open arm, and allowed to explore freely for 5 minutes. Behavioral patterns were recorded and analyzed by EthoVision software (Noldus). Data were used to assess the effects of RA-PR058 on anxiety-like behavior compared to control mice.

[1] = Plasma pharmacokinetics after IV and PO administration; assay type: in vivo; settings: Sprague-Dawley, rat, 10 mg/kg, S.D. rats; for Cmax / half-life / AUC(0-t): in vivo; for AUC(0-t): read-out: AUC0-7h; for Tmax: plasma
Method: (§2) Pharmacokinetic assays were conducted by NeuroVis (Republic of Korea). 10 mg/kg of RA-PR058 was administered to Sprague–Dawley rats by either oral administration route or intravenous injection route. Blood sampling was conducted using the BASi Culex ABS system. After cannulation, catheters were inserted into the jugular vein and the carotid artery of the rats, with the system programmed to collect 200 μL samples. Collected blood samples were centrifuged at 12,000 x rpm for 10 minutes to separate plasma, which was then immediately stored at −80 ℃. For brain pharmacokinetics, 10 mg/kg of RA-PR058 was administered orally to Sprague–Dawley rats, followed by collection of both blood and brain tissue. After collection, samples were mixed with the internal standard, ofloxacin, and centrifuged at 13,000 x rpm for 5 minutes at 4 ℃. The resulting supernatants were then combined with 50% methanol and analyzed by LC-MS/MS.

[2] = Plasma and brain pharmacokinetics after oral administration; assay type: in vivo; settings: Sprague-Dawley, rat, 10 mg/kg oral, S.D. rats; for AUC(0-t): read-out: AUC0-7h
Method: as §2

Cl.N[C@@H](CCC(=O)NNc1ccccc1F)C(F)F [RA-PR058, (S)-4-amino-5,5-difluoro-N'-(2-fluorophenyl)pentanehydrazide hydrochloride]
Tau phosphorylation at Ser202/Thr205 (AT8) (tau; cortex, normalized with Tau13): significantly reduced | Tau phosphorylation at Ser396 (tau; cortex, normalized with Tau13): significantly reduced | Tau phosphorylation at Thr231 (AT180) (tau; cortex, normalized with Tau13): significantly reduced | AT8 expression in the hippocampus (tau; hippocampus): significantly reduced | Other phosphorylated tau species in the hippocampus (tau; hippocampus, AT180, p-Tau S396): did not affect | Time spent in open arms of the EPM (3xTg-AD mice): significantly more time | Cmax ([1]; IV): 4260 ng/mL | half-life ([1]; IV): 1.06 h | AUC(0-t) ([1]; IV): 5700 ng·h/mL | Cmax ([1]; PO): 3480 ng/mL | half-life ([1]; PO): 1.57 h | AUC(0-t) ([1]; PO): 6090 ng·h/mL | Tmax ([1]; IV): 0.292 h | Tmax ([1]; PO): 0.458 h | Kp ([2]; brain and plasma, read-out: Brain-to-plasma AUC ratio (AUC0–7h)): 0.916 | Cmax ([2]; Brain): 3190 ng/mL | half-life ([2]; Brain): 1.57 h | AUC(0-t) ([2]; Brain): 6090 ng·h/mL | Cmax ([2]; Plasma): 3900 ng/mL | half-life ([2]; Plasma): 1.06 h | AUC(0-t) ([2]; Plasma): 5700 ng·h/mL
